{
  "source": "paper PMC4052307",
  "about": "“Identification of Plakortide E from the Caribbean Sponge Plakortis halichondroides as a Trypanocidal Protease Inhibitor using Bioactivity-Guided Fractionation” (Marine Drugs, 2014)",
  "key": {"[1]": {"system": "Plasmodia", "conditions": "cited from earlier work"}, "[2]": {"biological_target": "T1, rhodesain (Trypanosoma brucei rhodesiense, UniProt Q95PM0)", "T1 sequence (Q95PM0 entry or part of it)": "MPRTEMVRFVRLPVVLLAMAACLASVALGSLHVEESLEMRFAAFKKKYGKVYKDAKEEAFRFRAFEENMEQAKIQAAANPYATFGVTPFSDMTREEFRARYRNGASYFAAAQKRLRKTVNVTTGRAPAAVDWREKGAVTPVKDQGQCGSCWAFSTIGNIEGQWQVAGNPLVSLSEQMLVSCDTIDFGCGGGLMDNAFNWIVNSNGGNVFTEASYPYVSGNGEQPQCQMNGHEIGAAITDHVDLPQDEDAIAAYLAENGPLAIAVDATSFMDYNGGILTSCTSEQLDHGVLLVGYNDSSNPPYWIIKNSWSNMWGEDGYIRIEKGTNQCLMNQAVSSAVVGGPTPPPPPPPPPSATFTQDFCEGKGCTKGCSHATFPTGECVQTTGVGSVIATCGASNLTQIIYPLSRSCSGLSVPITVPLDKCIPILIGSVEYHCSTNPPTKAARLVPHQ", "test": "rhodesain dilution assay (reversibility)", "assay_type": "biochemical", "conditions": "preincubated 1 h with 10 fold IC50, then diluted 100 fold", "experimental": "In order to study the inhibition mechanism of plakortide E, enzyme assays with various inhibitor and substrate concentrations were performed with cathepsin B to determine whether the inhibition is competitive with respect to the substrate. The IC50 values for cathepsin B were determined at three different substrate concentrations (50, 100, 200 μM). […] Therefore, we determined the time-dependency of inhibition by measuring IC50 values in correlation to incubation time of enzyme with the inhibitor added, prior to substrate addition. […] To address whether the inhibition is reversible or irreversible, further kinetic studies were performed as described by Copeland [19]. Dilution assays were performed and compared with K11777 [20], an irreversible vinylsulfone-based inhibitor of rhodesain. The enzyme rhodesain (100 fold concentration as used in the normal enzyme assays) was preincubated with the 10 fold IC50 concentration of the compound for one hour, which allows the formation of enzyme-inhibitor complexes and leads to total block of enzyme activity. […] In case of irreversible inhibition, dissociation of the complex cannot occur and no enzyme activity will be detected. […] This indicates a reversible inhibition by plakortide E. In summary, plakortide E was determined to be a non-competitive, reversible, inhibitor of cysteine proteases, in case of rhodesain slow-binding was observed."}, "[3]": {"biological_target": "cathepsin B (Homo sapiens, UniProt P07858)", "test": "cathepsin B enzyme assay", "assay_type": "biochemical"}, "[4]": {"biological_target": "cathepsin L (Homo sapiens, UniProt P07711)", "sequence (P07711 114-333)": "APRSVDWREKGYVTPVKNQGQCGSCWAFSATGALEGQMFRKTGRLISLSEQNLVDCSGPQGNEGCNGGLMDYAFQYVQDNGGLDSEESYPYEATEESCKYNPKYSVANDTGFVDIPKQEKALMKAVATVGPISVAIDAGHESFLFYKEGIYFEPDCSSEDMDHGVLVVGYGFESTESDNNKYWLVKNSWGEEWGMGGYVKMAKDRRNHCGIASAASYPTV", "test": "cathepsin L enzyme assay", "assay_type": "biochemical"}, "[5]": {"biological_target": "T1, rhodesain", "test": "rhodesain enzyme assay", "assay_type": "biochemical"}, "[6]": {"system": "SARS PLpro", "assay_type": "biochemical, SARS coronavirus", "conditions": "at 100 μg/mL (285.71 μM)"}, "[7]": {"system": "trypomastigote forms of Trypanosoma brucei", "test": "parasite growth assay against T. brucei", "assay_type": "cell-based", "conditions": "read-out: trypanocidal activity IC50"}, "[8]": {"system": "Leishmania major promastigotes", "test": "assay on L. major promastigotes", "assay_type": "cell-based"}, "[9]": {"system": "Candida albicans", "test": "assay on C. albicans", "assay_type": "cell-based"}, "[10]": {"system": "J774.1 macrophages", "conditions": "at 100 μM"}, "[11]": {"system": "sarcoplasmic reticulum (SR) Ca2+ ATPase", "parameters": "method as in doi:10.1016/0040-4020(95)00856-X", "conditions": "cited from earlier work"}},
  "note": "pIC50: −log10 of the molar value. Values joined by “and” are separate entries in the source; they are usually repeats but may differ in a detail not shown here. Equal values may be shown once. Read-outs that look alike come from different tables or passages of the source.",
  "data": [
    {"compound": "CC/C=C/C(CC)C[C@@]1(C)C[C@@H](CC)[C@H](CC(=O)OC)OO1", "note": "(stereo partly shown) [3-epiplakortin]", "values": [
      {"measurement": "activity against Plasmodia", "setting": "[1]", "value": "active"}
    ]},
    {"compound": "CN1CCN(C(=O)N[C@@H](Cc2ccccc2)C(=O)N[C@H](/C=C/S(=O)(=O)c2ccccc2)CCc2ccccc2)CC1", "note": "[K11777, reference compound]", "values": [
      {"measurement": "reactivation of the enzyme (enzyme activity after dilution)", "setting": "[2]", "value": "no enzyme activity was detected"}
    ]},
    {"compound": "CC/C=C/[C@H](CC)C/C(C)=C/[C@@]1(CC)C[C@](/C=C/C(=O)O)(CC)OO1", "note": "[plakortide E]", "values": [
      {"measurement": "inhibition mechanism, cathepsin B", "setting": "[3]; IC50 at three substrate concentrations", "value": "non-competitive inhibition"},
      {"measurement": "inhibition of cathepsin B", "setting": "[3]; at 100 μg/mL (285.71 μM)", "value": "Inhibition"},
      {"measurement": "pIC50", "setting": "[3]; substrate concentration 50 μM", "value": "4.08 and 4.09"},
      {"measurement": "pIC50", "setting": "[3]; substrate concentration 100 μM", "value": "4.13 and 4.14"},
      {"measurement": "pIC50", "setting": "[3]; substrate concentration 200 μM", "value": 3.99},
      {"measurement": "pIC50", "setting": "[4]; [S] = 6.25 μM", "value": 3.98},
      {"measurement": "inhibition of cathepsin L", "setting": "[4]; at 100 μg/mL (285.71 μM)", "value": "Inhibition"},
      {"measurement": "IC50", "setting": "[5]; 5 min incubation of enzyme with inhibitor prior to substrate addition, read-out: IC50 rhodesain, time-dependency (converted)", "value": 257, "unit": "µM"},
      {"measurement": "IC50", "setting": "[5]; 30 min incubation of enzyme with inhibitor prior to substrate addition, read-out: IC50 rhodesain, time-dependency (converted)", "value": 205, "unit": "µM"},
      {"measurement": "IC50", "setting": "[5]; 60 min incubation of enzyme with inhibitor prior to substrate addition, read-out: IC50 rhodesain, time-dependency (converted)", "value": 77, "unit": "µM"},
      {"measurement": "IC50", "setting": "[5]; [S] = 30.0 μM, read-out: IC50 rhodesain (converted)", "value": "124 µM and 126 µM"},
      {"measurement": "inhibition of rhodesain", "setting": "[5]; at 100 μg/mL (285.71 μM)", "value": "Inhibition"},
      {"measurement": "inhibition mechanism, rhodesain", "setting": "[5]; enzyme kinetic studies", "value": "non-competitive, slowly-binding, reversible inhibitor"},
      {"measurement": "reactivation of the enzyme (enzyme activity after dilution)", "setting": "[2]", "value": "about 50%"},
      {"measurement": "inhibition of SARS PLpro", "setting": "[6]", "value": "Inhibition"},
      {"measurement": "pIC50", "setting": "[7]; after 48 h", "value": 5.30},
      {"measurement": "pIC50", "setting": "[7]; after 72 h", "value": 5.30},
      {"measurement": "activity against Leishmania", "setting": "[8]", "value": "did not show activity"},
      {"measurement": "activity against Candida", "setting": "[9]", "value": "No activity"},
      {"measurement": "cytotoxic effects against macrophages", "setting": "[10]", "value": "no cytotoxic effects"},
      {"measurement": "SR Ca2+ ATPase activity", "setting": "[11]", "value": "stimulate"},
      {"measurement": "activity against Plasmodia", "setting": "[1]", "value": "inactive"}
    ]},
    {"compound": "CC/C=C/[C@H](CC)C/C=C/[C@@]1(CC)C[C@H](CC)[C@H](CC(=O)O)OO1", "note": "[plakortide M]", "values": [
      {"measurement": "activity against Plasmodia", "setting": "[1]", "value": "active"}
    ]},
    {"compound": "CC/C=C/[C@H](CC)C[C@@]1(C)C[C@@H](CC)[C@@H](CC(=O)OC)OO1", "note": "[plakortin]", "values": [
      {"measurement": "activity against Plasmodia", "setting": "[1]", "value": "active"}
    ]},
    {"compound": "dihydroplakortin", "values": [
      {"measurement": "activity against Plasmodia", "setting": "[1]", "value": "active"}
    ]},
    {"compound": "plakortide Q", "values": [
      {"measurement": "activity against Plasmodia", "setting": "[1]", "value": "active"}
    ]}
  ]
}
